Tests used:
[1] = test system: neuronally differentiated PC12 cells; details: cited from earlier work; for concentration of maximal protection from death: camptothecin-treated; for cell death: day 6, in the presence or absence of camptothecin, both or individual
cortical neurons = details: cited from earlier work; for IC50: protection against camptothecin-induced death
rat sympathetic neurons = details: camptothecin-treated; cited from earlier work
proliferating PC12 cells = details: cited from earlier work
[2] = test system: neuronal PC12 cells and sympathetic neurons; details: two model systems of neuronal survival; cited from earlier work
[3] = test system: PC-3 Human Prostate Tumor; experiment: Subrenal capsule assay, inhibition of PC-3 tumor growth; format: in vivo, Nude Mice; details: for V/V0 (mean ± s.e.m.): 12 days, Experiment # 1; for %T/C: day 12, Experiment # 1
Protocol: Nude mice were housed in microisolator cages under positive air pressure. Surgical procedures and dosing were performed in a laminar flow cabinet. The subrenal capsule assay was performed as described in Bogden, A. E., Kelton, D. E., Cobb, W. R. and Esber, H. J. A rapid screening method for testing chemotherapeutic agents against human tumor xenografts. In: D. P. Houchens and A. A. Ovejera (eds.), Proceedings of the Symposium on the Use of Athymic (Nude) Mice in Cancer Research, pp 231-250. New York: Gustav Fischer New York, Inc. 1978. Briefly, tumors of 400-500 mm^3 obtained from maintenance mice were cut into 1 mm^3 pieces and the sizes checked using an ocular micrometer and a dissecting microscope. After exteriorization of the kidney, tumor pieces were implanted under the capsule of the kidneys of male nude mice (6-8 weeks of age) using a 13 Ga trochar. After implantation, the longest and shortest diameters of the tumor piece were measured using the ocular micrometer and a dissecting microscope. The kidney was placed back into the body cavity and the body wall incision closed with silk sutures and the skin incision closed with wound clips. Drug treatment was begun on the day following implantation and continued for 12 days at which time the kidneys were again exteriorized and tumor size measured as described above. Tumor volume was calculated by the formula, V = length x width^2/2 as described in Houchens, D. P., Ovejera, A. A., and Barker, A. D. The therapy of human tumors in athymic (nude) mice. In : D. P. Houchens and A. A. Ovejera (eds.), Proceedings of the Symposium on the Use of Athymic (Nude) Mice in Cancer Research, pp. 267-280. New York: Gustav Fischer New York, Inc., 1978.

[4] = test system: CDK-cyclin protein kinases; details: moderate inhibitory activity; cited from earlier work
[5] = test system: cAMP- and cGMP-dependent kinases, and protein kinase C; details: cited from earlier work
[6] = camptothecin-treated neuronal cells

Compound	prevention of cell death [1, 6]	prevention of cell death (cortical neurons; [6])	concentration of maximal protection from death (rat sympathetic neurons)	minimum concentration that fully inhibits DNA synthesis (proliferating PC12 cells)	concentration of maximal protection from death [1]	cell death [1]	death of neuronal cells [2]	IC50 (cortical neurons)	V/V0 (mean ± s.e.m.) ([3]; 1 mg/kg i.p. daily)	%T/C ([3]; 1 mg/kg i.p. daily)	V/V0 (mean ± s.e.m.) ([3]; 3 mg/kg i.p. daily)	%T/C ([3]; 3 mg/kg i.p. daily)	IC50 [4]	effect on other major protein kinases [5]
Cn1cnc2nc(NCCO)nc(NCc3ccccc3)c21 [iso-olomoucine]	failed to prevent the cell death	failed to prevent the cell death	–	–	–	–	–	–	–	–	–	–	–	–
CN1CC[C@H](c2c(O)cc(O)c3c(=O)cc(-c4ccccc4Cl)oc23)[C@H](O)C1 [flavopiridol]	–	–	1 µM	1 µM	1 µM	approximately 30%	suppress the death	0.1 µM	–	–	–	–	–	–
Cl.Cl.N[C@H]1CC[C@H](Nc2nc(NCc3cccc(I)c3)c3ncn(C4CCCC4)c3n2)CC1 [Example 1, 2-[Trans-(4-aminocyclohexyl)amino]-6-(3-iodobenzylamino)-9-cyclopentylpurine dihydrochloride]	–	–	–	–	–	–	–	–	4.8 ± 3.1	109%	2.0 ± 1.0	44%	–	–
Cn1cnc2c(NCc3ccccc3)nc(NCCO)nc21 [Olomoucine, 6-(benzylamino)-2-[(2-hydroxyethyl)amino]-9-methylpurine]	–	–	200 µM	200 µM	200 µM	approximately 30%	suppress the death	100 µM	–	–	–	–	~7 µM	no effect
